Assays:
[1] = Agonist activity at AMPA receptor in rat DRG neurons by patch clamp technique; settings: DRG neuron
[2] = Agonist activity at AMPA receptor in rat hippocampal neurons by patch clamp technique; format: tissue-based; settings: Hippocampus
Homo sapiens [3] = organism: Homo sapiens; test: Selectivity ratio of IC50 for human voltage-gated Na channel 1.7 to IC50 for human voltage-gated Na channel 1.8
Homo sapiens [4] = organism: Homo sapiens; test: Selectivity ratio of IC50 for human voltage-gated Na channel 1.1 to IC50 for human voltage-gated Na channel 1.8
Homo sapiens [5] = organism: Homo sapiens; test: Selectivity ratio of IC50 for human voltage-gated Na channel 1.5 to IC50 for human voltage-gated Na channel 1.8
[6] = target: Voltage-gated potassium channel KCNC1 (Rattus norvegicus, UniProt P25122); test: Inhibition of rat voltage-gated K channel 3.1 expressed in CHO cells by patch clamp assay; format: cell-based
Voltage-gated potassium channel KCNC1, sequence (P25122 whole entry): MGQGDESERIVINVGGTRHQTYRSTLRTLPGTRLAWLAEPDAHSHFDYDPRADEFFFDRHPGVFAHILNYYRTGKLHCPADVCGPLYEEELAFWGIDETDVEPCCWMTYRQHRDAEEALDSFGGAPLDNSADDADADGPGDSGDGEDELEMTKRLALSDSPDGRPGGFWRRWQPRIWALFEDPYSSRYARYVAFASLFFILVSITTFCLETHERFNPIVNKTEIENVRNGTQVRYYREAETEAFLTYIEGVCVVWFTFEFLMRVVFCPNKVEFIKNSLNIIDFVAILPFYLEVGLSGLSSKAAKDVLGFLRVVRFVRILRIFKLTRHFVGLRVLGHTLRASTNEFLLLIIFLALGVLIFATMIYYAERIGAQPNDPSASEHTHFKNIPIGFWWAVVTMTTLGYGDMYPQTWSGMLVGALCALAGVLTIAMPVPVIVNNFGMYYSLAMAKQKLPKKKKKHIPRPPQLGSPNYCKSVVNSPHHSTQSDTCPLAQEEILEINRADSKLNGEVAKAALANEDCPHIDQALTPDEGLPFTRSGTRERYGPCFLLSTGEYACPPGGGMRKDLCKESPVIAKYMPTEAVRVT

[7] = target: T1, Potassium channel subfamily K member 2 (Homo sapiens, UniProt O95069); test: Inhibition of TREK-1 (unknown origin)
T1 sequence (O95069 whole entry): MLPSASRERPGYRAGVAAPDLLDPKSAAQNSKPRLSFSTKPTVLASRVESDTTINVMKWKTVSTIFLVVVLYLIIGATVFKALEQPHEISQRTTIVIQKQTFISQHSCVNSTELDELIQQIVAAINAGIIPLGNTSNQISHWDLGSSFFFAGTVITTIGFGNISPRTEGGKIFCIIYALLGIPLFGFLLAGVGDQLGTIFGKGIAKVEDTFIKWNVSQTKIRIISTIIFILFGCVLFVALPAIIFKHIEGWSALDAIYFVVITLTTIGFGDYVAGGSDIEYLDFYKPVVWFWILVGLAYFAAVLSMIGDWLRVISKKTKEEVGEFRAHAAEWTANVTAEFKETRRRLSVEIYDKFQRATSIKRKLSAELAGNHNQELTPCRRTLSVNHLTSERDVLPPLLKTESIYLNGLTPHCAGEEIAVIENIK

[8] = target: P2X2/P2X3 heterotrimeric receptor (Homo sapiens, UniProt P56373+Q9UBL9); test: Antagonist activity at human P2X2/3 receptor; format: protein-complex assay
P2X2/P2X3 heterotrimeric receptor, sequence (Q9UBL9 whole entry): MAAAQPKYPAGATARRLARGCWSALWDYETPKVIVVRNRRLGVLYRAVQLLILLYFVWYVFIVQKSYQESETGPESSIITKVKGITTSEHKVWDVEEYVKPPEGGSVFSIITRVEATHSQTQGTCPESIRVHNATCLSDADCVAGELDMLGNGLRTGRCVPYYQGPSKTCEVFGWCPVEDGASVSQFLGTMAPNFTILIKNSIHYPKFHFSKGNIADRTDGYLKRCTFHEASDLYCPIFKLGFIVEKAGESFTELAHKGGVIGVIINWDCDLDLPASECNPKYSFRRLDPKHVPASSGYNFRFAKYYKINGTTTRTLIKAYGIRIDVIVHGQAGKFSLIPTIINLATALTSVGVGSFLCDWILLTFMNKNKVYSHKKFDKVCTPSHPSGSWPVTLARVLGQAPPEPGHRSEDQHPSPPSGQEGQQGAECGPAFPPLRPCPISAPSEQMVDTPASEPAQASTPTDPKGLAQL
P2X2/P2X3 heterotrimeric receptor, sequence (P56373 whole entry): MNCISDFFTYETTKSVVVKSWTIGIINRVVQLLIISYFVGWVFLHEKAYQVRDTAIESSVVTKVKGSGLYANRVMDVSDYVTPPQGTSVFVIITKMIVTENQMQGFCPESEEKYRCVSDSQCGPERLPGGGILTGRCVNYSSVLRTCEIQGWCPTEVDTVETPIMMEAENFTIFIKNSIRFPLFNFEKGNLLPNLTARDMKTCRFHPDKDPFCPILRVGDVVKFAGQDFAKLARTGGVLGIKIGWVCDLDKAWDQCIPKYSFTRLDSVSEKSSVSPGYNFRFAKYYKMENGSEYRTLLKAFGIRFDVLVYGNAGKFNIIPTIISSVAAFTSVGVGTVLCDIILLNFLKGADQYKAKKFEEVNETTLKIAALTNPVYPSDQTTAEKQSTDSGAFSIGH

[9] = target: Inward rectifier potassium channel 2 (Mus musculus, UniProt P35561); test: Inhibition of mouse Kir2.1 expressed in HEK293 cells by patch clamp technique; format: cell-based
Inward rectifier potassium channel 2, sequence (P35561 whole entry): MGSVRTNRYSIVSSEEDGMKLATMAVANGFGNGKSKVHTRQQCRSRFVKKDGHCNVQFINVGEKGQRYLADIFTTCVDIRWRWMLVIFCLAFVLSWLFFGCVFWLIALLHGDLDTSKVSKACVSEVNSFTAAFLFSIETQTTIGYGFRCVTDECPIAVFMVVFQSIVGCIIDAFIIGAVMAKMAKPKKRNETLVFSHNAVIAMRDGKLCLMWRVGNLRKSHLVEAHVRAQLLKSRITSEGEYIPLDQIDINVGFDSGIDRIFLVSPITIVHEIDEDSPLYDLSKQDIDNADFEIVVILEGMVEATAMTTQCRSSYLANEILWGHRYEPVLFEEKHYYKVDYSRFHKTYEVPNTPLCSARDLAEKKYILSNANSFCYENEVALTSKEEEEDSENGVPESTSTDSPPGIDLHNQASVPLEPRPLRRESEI

[10] = target: Small conductance calcium-activated potassium channel protein 3 (Homo sapiens, UniProt Q9UGI6); test: Inhibition of human Kca 2.3 expressed in HEK293 cells by patch clamp technique; format: cell-based
Small conductance calcium-activated potassium channel protein 3, sequence (Q9UGI6 whole entry): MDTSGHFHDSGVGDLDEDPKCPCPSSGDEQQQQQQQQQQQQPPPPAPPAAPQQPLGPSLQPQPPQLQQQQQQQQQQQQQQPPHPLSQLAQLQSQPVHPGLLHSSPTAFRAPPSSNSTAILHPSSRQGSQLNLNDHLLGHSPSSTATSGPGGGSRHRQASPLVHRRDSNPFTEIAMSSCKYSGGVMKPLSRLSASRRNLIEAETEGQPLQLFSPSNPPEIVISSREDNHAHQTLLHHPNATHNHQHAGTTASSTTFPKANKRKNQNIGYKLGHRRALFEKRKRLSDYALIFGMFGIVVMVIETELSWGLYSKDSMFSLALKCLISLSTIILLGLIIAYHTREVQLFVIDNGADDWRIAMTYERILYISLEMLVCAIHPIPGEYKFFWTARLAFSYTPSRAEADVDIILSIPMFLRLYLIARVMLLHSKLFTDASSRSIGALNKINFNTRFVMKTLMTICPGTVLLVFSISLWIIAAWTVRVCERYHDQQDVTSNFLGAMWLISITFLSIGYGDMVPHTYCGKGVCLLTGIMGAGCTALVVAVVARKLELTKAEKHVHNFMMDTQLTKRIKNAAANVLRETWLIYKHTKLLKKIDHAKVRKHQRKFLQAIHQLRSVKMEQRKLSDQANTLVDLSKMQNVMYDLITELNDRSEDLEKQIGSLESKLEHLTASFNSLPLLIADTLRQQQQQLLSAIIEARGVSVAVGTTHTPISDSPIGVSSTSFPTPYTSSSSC

Homo sapiens [11] = organism: Homo sapiens; test: Selectivity ratio of IC50 for voltage-gated K channel (unknown origin) to human voltage-gated K channel 2.1
Homo sapiens [12] = organism: Homo sapiens; test: Selectivity ratio of IC50 for voltage-gated Na channel (unknown origin) to IC50 for human voltage-gated K channel 2.1
Homo sapiens [13] = organism: Homo sapiens; test: Selectivity ratio of IC50 for voltage-gated K channel (unknown origin) to voltage-gated K channel 2.2 (unknown origin)
Homo sapiens [14] = organism: Homo sapiens; test: Selectivity ratio of IC50 for voltage-gated Na channel (unknown origin) to IC50 for voltage-gated K channel 2.2 (unknown origin)
[15] = target: Potassium voltage-gated channel subfamily B member 2 (Homo sapiens, UniProt Q92953); test: Inhibition of voltage-gated K channel 2.2 (unknown origin) by automated patch clamp assay
[16] = target: Inward rectifier potassium channel 4 (Homo sapiens, UniProt P48050); test: Inhibition of Kir2.3 (unknown origin)
Inward rectifier potassium channel 4, sequence (P48050 whole entry): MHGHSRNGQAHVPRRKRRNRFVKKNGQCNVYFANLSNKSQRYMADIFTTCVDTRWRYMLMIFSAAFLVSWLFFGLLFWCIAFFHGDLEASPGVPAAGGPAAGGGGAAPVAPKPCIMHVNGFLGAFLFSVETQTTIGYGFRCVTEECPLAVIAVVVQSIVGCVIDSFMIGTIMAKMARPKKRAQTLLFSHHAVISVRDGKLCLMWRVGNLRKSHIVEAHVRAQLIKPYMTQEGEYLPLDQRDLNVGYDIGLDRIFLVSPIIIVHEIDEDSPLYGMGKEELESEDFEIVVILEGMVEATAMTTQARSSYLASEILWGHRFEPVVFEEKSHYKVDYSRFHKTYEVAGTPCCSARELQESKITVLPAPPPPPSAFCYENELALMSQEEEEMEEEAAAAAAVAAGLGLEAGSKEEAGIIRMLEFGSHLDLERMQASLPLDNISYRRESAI

Rattus norvegicus [17] = organism: Rattus norvegicus; test: Selectivity ratio of EC50 for AMPA receptor in rat hippocampal neurons to EC50 for AMPA receptor in rat DRG neurons; format: tissue-based; settings: Hippocampus
[18] = target: T1, Potassium channel subfamily K member 2; test: Inhibition of human TREK-1 expressed in HEK293 cells by patch-clamp technique; format: cell-based
Rattus norvegicus [19] = organism: Rattus norvegicus; test: Selectivity ratio of EC50 for AMPA receptor in rat DRG neurons to EC50 for AMPA receptor in rat hippocampal neurons; format: tissue-based; settings: Hippocampus
[20] = Inhibition of AMPA receptor (unknown origin); set-up: species or system Homo sapiens
[21] = target: Glutamate receptor ionotropic, kainate 1 (Homo sapiens, UniProt P39086); test: Inhibition of GluK1 receptor (unknown origin)
Glutamate receptor ionotropic, kainate 1, sequence (P39086 whole entry): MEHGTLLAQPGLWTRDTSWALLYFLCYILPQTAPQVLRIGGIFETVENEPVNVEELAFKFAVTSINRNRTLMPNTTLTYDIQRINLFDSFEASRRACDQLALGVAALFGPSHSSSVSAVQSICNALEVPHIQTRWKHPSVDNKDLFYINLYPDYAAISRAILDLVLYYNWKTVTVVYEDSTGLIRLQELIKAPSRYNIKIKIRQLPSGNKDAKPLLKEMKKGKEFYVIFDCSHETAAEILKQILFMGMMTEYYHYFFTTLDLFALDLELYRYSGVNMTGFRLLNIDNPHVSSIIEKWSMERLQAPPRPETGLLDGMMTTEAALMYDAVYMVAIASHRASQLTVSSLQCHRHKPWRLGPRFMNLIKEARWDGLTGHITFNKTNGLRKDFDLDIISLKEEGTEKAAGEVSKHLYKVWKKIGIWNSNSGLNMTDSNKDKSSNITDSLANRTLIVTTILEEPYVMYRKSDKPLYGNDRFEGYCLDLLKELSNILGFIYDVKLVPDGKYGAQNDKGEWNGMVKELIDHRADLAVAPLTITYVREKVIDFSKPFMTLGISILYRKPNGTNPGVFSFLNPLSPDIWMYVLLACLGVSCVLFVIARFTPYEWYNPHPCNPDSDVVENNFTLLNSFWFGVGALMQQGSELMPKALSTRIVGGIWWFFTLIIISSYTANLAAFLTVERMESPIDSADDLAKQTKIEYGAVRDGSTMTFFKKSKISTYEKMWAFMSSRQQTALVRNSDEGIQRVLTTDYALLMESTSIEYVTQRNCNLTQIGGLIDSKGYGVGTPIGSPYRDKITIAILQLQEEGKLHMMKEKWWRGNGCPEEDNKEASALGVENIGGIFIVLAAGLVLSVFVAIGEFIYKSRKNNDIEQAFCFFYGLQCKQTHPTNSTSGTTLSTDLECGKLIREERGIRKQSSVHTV

[22] = target: Acid-sensing ion channel 3 (Rattus norvegicus, UniProt O35240); test: Inhibition of ASIC3 in rat DRG neurons
Acid-sensing ion channel 3, sequence (O35240 whole entry): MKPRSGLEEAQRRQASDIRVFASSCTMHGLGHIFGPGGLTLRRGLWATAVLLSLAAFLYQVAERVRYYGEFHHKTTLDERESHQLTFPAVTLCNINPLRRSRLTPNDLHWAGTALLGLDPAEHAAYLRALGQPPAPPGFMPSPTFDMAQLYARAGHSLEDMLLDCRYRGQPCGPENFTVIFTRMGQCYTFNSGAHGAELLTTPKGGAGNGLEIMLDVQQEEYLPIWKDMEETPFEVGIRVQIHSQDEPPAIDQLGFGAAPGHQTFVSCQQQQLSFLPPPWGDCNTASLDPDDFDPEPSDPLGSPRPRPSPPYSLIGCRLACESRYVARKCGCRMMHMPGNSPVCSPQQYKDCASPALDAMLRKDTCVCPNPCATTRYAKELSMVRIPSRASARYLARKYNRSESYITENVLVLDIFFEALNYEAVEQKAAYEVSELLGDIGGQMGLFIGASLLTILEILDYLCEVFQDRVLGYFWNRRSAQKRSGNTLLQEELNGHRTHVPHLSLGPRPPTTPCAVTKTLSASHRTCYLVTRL

N[C@@H](Cn1cc(Cl)c(=O)[nH]c1=O)C(=O)O
EC50 [1]: 2000 nM | EC50 [2]: 2000 nM

Cc1nocc1C(=O)Nc1ccc(-c2ccccc2OC(F)(F)F)c(N)n1
Ratio IC50 (Homo sapiens [3]): > 20 | Ratio IC50 (Homo sapiens [4]): > 20 | Ratio IC50 (Homo sapiens [5]): > 20

NCCC(Oc1ccc(C(F)(F)F)cc1)c1ccccc1 (centres undefined) [NORFLUOXETINE]
IC50 [6]: 800 nM

CCOC(=O)C1=C(COCCN)NC(C)=C(C(=O)OC)C1c1ccccc1Cl (centres undefined) [AMLODIPINE]
IC50 [7]: 400 nM

CCc1nnnn1-c1cc(C(=O)NC(C)c2cnccn2)cc(-c2ccc(C)cc2)c1 (centres undefined)
IC50 [8]: 8000 nM

COc1ccc(CNCc2cccc3ccccc23)cc1
IC50 [9]: 1800 nM

Cc1ccn(-c2nc(Nc3ccc(F)cc3)c3ncn(C)c3n2)n1
EC50 [10]: 20 nM

CC(C)C(=O)Nc1ccc(N(C)C)c(C(=O)N[C@@H](C)c2ccccc2)c1
Ratio IC50 (Homo sapiens [11]): > 10 | Ratio IC50 (Homo sapiens [12]): > 10 | Ratio IC50 (Homo sapiens [13]): > 10 | Ratio IC50 (Homo sapiens [14]): > 10 | IC50 [15]: 100 nM

N=c1n(Cc2ccccc2)c2ccccc2n1CC(O)CN1CCOCC1 (centres undefined)
IC50 [16]: 24000 nM

N[C@@H](Cn1cc(I)c(=O)[nH]c1=O)C(=O)O
Ratio EC50 (Rattus norvegicus [17]): 137 | EC50 [1]: 140 nM

CCN(CC)CC(=O)Nc1c(C)cccc1C [LIDOCAINE]
IC50 [18]: 180000 nM

N[C@@H](Cn1cc(F)c(=O)[nH]c1=O)C(=O)O
Ratio EC50 (Rattus norvegicus [19]): 46 | EC50 [2]: 1500 nM

O=C(O)[C@@H]1C[C@H]2C[C@@H](CCc3nn[nH]n3)CC[C@H]2CN1 [TEZAMPANEL ANHYDROUS]
IC50 [20]: 500 nM | IC50 [21]: 500 nM

CC(C)C1c2cc(C3CC3c3ccc4cc(C(=N)N)ccc4c3)ccc2CCN1C (centres undefined)
IC50 [22]: 9500 nM

— ChEMBL document CHEMBL2321869, “Ion channels as therapeutic targets: a drug discovery perspective” (J Med Chem, 2013)
